“Also recorded” adds a separate entry of the source.
Assays:
[1] = tested on: dopaminergic receptors (presynaptic and postsynaptic); experiment: Dopaminergic receptor profile of 3-PPP and its enantiomers (summary of tests); assay type: in vivo; settings: summary of enantiomer tests
Source text: The two enantiomers of 3-PPP have now been tested separately.

[2] = tested on: postsynaptic dopaminergic receptor; experiment: Antagonism of apomorphine-induced locomotor stimulation; assay type: in vivo, rat
Description: 3. Evidence for postsynaptic dopminergic receptor antagonist activity of (-)-3-PPP.
The locomotor stimulating action of the dopamine receptor aqonist apomorphine is antagonized by (-)-3-PPP. […] Thus the postsynaptic receptor antagonist activity requires a larger dose than the presynaptic receptor agonist activity, which is evident after doses down to 0.25 mg/kg.
Further, (-)-3-PPP and racemic 3-PPP have been compared regarding antagonism of apomorphine-induced locomotor stimulation. Either form of 3-PPP was injected subcutaneously in a dose of 8 mg/kg 20 min and apomorphine in a dose of 1 mg/kg subcutaneously 5 min before placing the rats in the Motron for 30 min. Shown are the counts per 30 min., means± s.e.m. and number of experiments (n).

[3] = tested on: postsynaptic dopaminergic receptors; experiment: Locomotor activity in reserpine-treated rats, enantiomers of 3-PPP; assay type: in vivo, rat; settings: reserpine-treated rats; (+)-form 0.25 to 64 mg/kg
Source text: 2. Evidence for postsynaptic dopaminergic receptor agonist activity of (+)-3-PPP.

[4] = tested on: presynaptic dopaminergic receptor (autoreceptor); experiment: Spontaneous exploratory motor activity of rats, enantiomers of 3-PPP; assay type: in vivo, rat
Description: 1. Evidence for presynaptic dopaminergic receptor (autoreceptor) agonist activity of both enantiomers of 3-PPP. Both enantiomers of 3-PPP cause a dose-dependent decrease in spontaneous exploratory motor activity of rats. […] However, the (+)-enantiomer causes a decrease only after doses between 0.25 and 4 mg/kg s.c.

[5] = tested on: presynaptic dopaminergic receptors and postsynaptic dopaminergic receptors; experiment: Antagonism of the locomotor stimulating activity of (+)-amphetamine; settings: in vivo
Source text: This effect is probably the result of the simultaneous stimulation of presynaptic dopaminergic receptors and partial blockade of postsynaptic dopaminergic receptors. All the major antipsychotic agents in current use are potent amphetamine antagonists, and such activity is considered to be predictive of antipsychotic action.

[6] = tested on: dopa formation; experiment: Dopa formation and dopamine metabolite levels in rats not pretreated with GBL or reserpine; assay type: in vivo, rat

SMILES: CCCN1CCCC(c2cccc(O)c2)C1.Cl (single isomer, unassigned; (-)) [(-)-3-PPP, (-)-3-(3-Hydroxyphenyl)-N-n-propylpiperidine hydrochloride]
- activity on presynaptic and postsynaptic dopaminergic receptors [1]: capable of activating the presynaptic dopaminergic receptors (autoreceptors) but concomitantly reduced the sensitivity of the postsynaptic dopaminergic receptors to dopaminergic agonists
- antagonism of apomorphine locomotor stimulation ([2]; 2 mg/kg): not after 2 mg/kg
- counts per 30 min., with apomorphine ([2]; 8 mg/kg s.c. + apomorphine 1 mg/kg s.c., means ± s.e.m., n=5): 276 ± 50 counts per 30 min.
- antagonism of apomorphine locomotor stimulation ([2]; 8 mg/kg s.c., hydrochloride): clearcut; also recorded: antagonized said stimulation
- stimulation of locomotor activity [3]: only a very weak stimulation of motor activity
- effect on locomotor activity over dose range ([4]; doses between 0.053 and 64 mg/kg s.c.): a decrease after all these doses, with no reversal of the effect after larger doses
- doses down to which presynaptic receptor agonist activity is evident ([4]; presynaptic receptor agonist activity): 0.25 mg/kg
- decrease of locomotor activity to % of control ([4]; s.c., first 30 min): 30-40 % of control
- antagonism of (+)-amphetamine locomotor stimulating activity [5]: striking antagonistic action
- dopa formation, limbic region ([6]; 0.053 to 64 mg/kg, no pretreatment, limbic region): no change
- dopa formation, striatum ([6]; 0.053 to 64 mg/kg, no pretreatment, striatum): increase
- levels of 3,4-dihydroxyphenyl acetic acid and homovanillic acid ([6]; matched to the changes in dopa formation): corresponding changes in the levels of the dopamine metabolites
- dopa formation and dopamine metabolite levels in rat striatum ([6]; rat striatum): stimulate dopa formation and to raise dopaminemetabolite levels in rat striatum
